Columns and labels:
BCL6 [1] = molecular target: T1, BCL6 (Homo sapiens, UniProt P41182); assay: BCL6 degradation immunoblot in VAL cells; assay type: cell-based
T1 construct: endogenous in cells; host or cells: VAL cells
Procedure: (§1) Inclusive of Examples 8-14, VAL cells were seeded in 6-well plates at 1×10^6 cells/well and treated with indicated concentration and time point for the indicated compounds. Total protein was extracted from cells using the RIPA buffer (Abcam) supplemented with the Halt Protease Inhibitor Cocktail (Millipore-Sigma). Samples were loaded to Invitrogen Bolt Bis -Tris Plus gels (ThermoFisher Scientific) and transferred to Invitrolon PVDF membranes (ThermoFisher Scientific) using the Invitrogen Bolt wet-gel Transfer Device. Immunodetection was performed with standard techniques. The following primary and secondary antibodies were used: anti-BCL6, β-actin, H3 (Cell Signaling Technology), and IRDye secondary antibodies at the concentration recommended by the manufacturer.
VAL cells were treated with compounds at serial concentrations of 0.1 μM, 1.0 μM, and 10 μM for 4 hours.
VAL cells were treated with 1 at serial concentrations of 0.001 μM, 0.010 μM, 0.100 μM, 1.0 μM, and 10 μM for 4 hours.
VAL cells were treated with 5 at serial concentrations of 0.001 μM, 0.010 μM, 0.100 μM, 1.0 μM, and 10 μM for 4 hours.
VAL cells were treated with 1 at 0.1 μM for 1, 2, 4, 8, and 24 hours.
VAL cells were treated with 6 at serial concentrations of 0.1 μM, 0.3 μM, 1.0 μM, 3.0 μM and 10 μM for 4 hours.

BCL6 [2] = molecular target: T1, BCL6; assay: BCL6 degradation immunoblot in DB cells; assay type: cell-based; details: tested at 0.1, 1.0, 10 μM for 4 hours, compared to BI-3812 and BI-3802
Procedure: as §1
DB cells were treated with compounds at serial concentrations of 0.1 μM, 1.0 μM, and 10 μM for 4 hours.

[3] = tested at 0.001, 0.010, 0.100, 1.0, 10 μM for 4 hours
[4] = tested at 0.1, 1.0, 10 μM for 4 hours, compared to BI-3812 and BI-3802

SMILES	concentration at which compound degrades BCL6 (immunoblot) (BCL6 [1]; tested at 0.1, 0.3, 1.0, 3.0, 10 μM for 4 hours) [nM]	time in which BCL6 is degraded (immunoblot) (BCL6 [1]; 0.1 μM (100 nM), time points 1, 2, 4, 8, 24 hours)	concentration at which compound degrades BCL6 (immunoblot) (BCL6 [1]; [3]) [nM]	concentration at which compound degrades BCL6 (immunoblot) (BCL6 [1]; [4]) [nM]	concentration at which compound degrades BCL6 (immunoblot) (BCL6 [2]) [nM]
CNC(=O)COc1cc2cc(Nc3nc(N4CCC(C(=O)NCCCCCCCCNc5cccc6c5C(=O)N(C5CCC(=O)NC5=O)C6=O)CC4)ncc3Cl)cc(OC)c2n(C)c1=O (centres unmarked) [compound 1, 1-(5-chloro-4-((8-methoxy-1-methyl-3-(2-(methylamino)-2-oxoethoxy)-2-oxo-1,2-dihydroquinolin-6-yl)amino)pyrimidin-2-yl)-N-(8-((2-(2,6-dioxopiperidin-3-yl)-1,3-dioxoisoindolin-4-yl)amino)octyl)piperidine-4-carboxamide]	–	less than 1 hour	1.0	100	–
CNC(=O)COc1cc2cc(Nc3nc(N4CCC(C(=O)NCCOCCNc5cccc6c5C(=O)N(C5CCC(=O)NC5=O)C6=O)CC4)ncc3Cl)cc(OC)c2n(C)c1=O (centres unmarked) [compound 4, 1-(5-chloro-4-((8-methoxy-1-methyl-3-(2-(methylamino)-2-oxoethoxy)-2-oxo-1,2-dihydroquinolin-6-yl)amino)pyrimidin-2-vl)-N-(2-(2-((2-(2,6-dioxopiperidin-3-yl)-1,3-dioxoisoindolin-4-yl)amino)ethoxy)ethyl)piperidine-4-carboxamide]	–	–	–	100	1000
CNC(=O)COc1cc2cc(Nc3nc(N4CCC(C(=O)NCCCCNc5cccc6c5C(=O)N(C5CCC(=O)NC5=O)C6=O)CC4)ncc3Cl)cc(OC)c2n(C)c1=O (centres unmarked) [compound 3, 1-(5-chloro-4-((8-methoxy-1-methyl-3-(2-(methylamino)-2-oxoethoxy)-2-oxo-1,2-dihydroquinolin-6-yl)amino)pyrimidin-2-v1)-N-(4-((2-(2,6-dioxopiperidin-3-yl)-1,3-dioxoisoindolin-4-yl)amino)butyl)piperidine-4-carboxamide]	–	–	–	100	100

More lines, now with the values ahead:

concentration at which compound degrades BCL6 (immunoblot) (BCL6 [1]; tested at 0.1, 0.3, 1.0, 3.0, 10 μM for 4 hours) [nM]	time in which BCL6 is degraded (immunoblot) (BCL6 [1]; 0.1 μM (100 nM), time points 1, 2, 4, 8, 24 hours)	concentration at which compound degrades BCL6 (immunoblot) (BCL6 [1]; [3]) [nM]	concentration at which compound degrades BCL6 (immunoblot) (BCL6 [1]; [4]) [nM]	concentration at which compound degrades BCL6 (immunoblot) (BCL6 [2]) [nM]	SMILES
300	–	–	–	–	CNC(=O)COc1cc2cc(Nc3nc(N4CCC(C(=O)NCCCCCCNC(=O)COc5cccc6c5C(=O)N(C5CCC(=O)NC5=O)C6=O)CC4)ncc3Cl)cc(OC)c2n(C)c1=O (centres unmarked) [compound 6, 1-(5-chloro-4-((8-methoxy-1-methyl-3-(2-(methylamino)-2-oxoethoxy)-2-oxo-1,2-dihydroquinolin-6-yl)amino)pyrimidin-2-vl)-N-(6-(2-((2-(2,6-dioxopiperidin-3-yl)-1,3-dioxoisoindolin-4-yl)oxy)acetamido)hexyl)piperidine-4-carboxamide]
–	–	10	100	1000	CNC(=O)COc1cc2cc(Nc3nc(N4CCC(NC(=O)CCCCCCCCCCCNc5cccc6c5C(=O)N(C5CCC(=O)NC5=O)C6=O)CC4)ncc3Cl)cc(OC)c2n(C)c1=O (centres unmarked) [compound 5, N-(1-(5-chloro-4-((8-methoxy-1-methyl-3-(2-(methylamino)-2-oxoethoxy)-2-oxo-1,2-dihydroquinolin-6-yl)amino)pyrimidin-2-yl)piperidin-4-yl)-12-((2-(2,6-dioxopiperidin-3-yl)-1,3-dioxoisoindolin-4-yl)amino)dodecanamide]

Source: patent US20250066326A1, “BCL6 DEGRADERS AND USES THEREOF” (Dana-Farber Cancer Institute, Inc., priority 2021, published 2025)
